From ChEMBL document CHEMBL1649329, “Differential selection of single-step AmpC or efflux mutants of Pseudomonas aeruginosa by using cefepime, ceftazidime, or ceftobiprole” (2010)
Converted amounts (≈) assume the structure as drawn.

Key:
Format in all cases: functional
Pseudomonas aeruginosa [1] = assay: Antimicrobial activity against Pseudomonas aeruginosa OC 11678 expressing 15 fold elevated AmpC expression by broth macrodilution method
Pseudomonas aeruginosa [2] = assay: Antimicrobial activity against Pseudomonas aeruginosa OC 12070 expressing 5 fold elevated AmpC expression by broth macrodilution method
Pseudomonas aeruginosa [3] = assay: Antimicrobial activity against Pseudomonas aeruginosa OC 11678 expressing 30 fold elevated AmpC expression by broth macrodilution method
Pseudomonas aeruginosa [4] = assay: Antimicrobial activity against Pseudomonas aeruginosa OC 11678 expressing 31 fold elevated mexX expression and 17 fold elevated mexY expression by broth macrodilution method
Pseudomonas aeruginosa [5] = assay: Antimicrobial activity against Pseudomonas aeruginosa OC 4351 by broth macrodilution method
Pseudomonas aeruginosa [6] = assay: Antimicrobial activity against Pseudomonas aeruginosa OC 11678 expressing 36 fold elevated AmpC expression by broth macrodilution method
Pseudomonas aeruginosa [7] = assay: Antimicrobial activity against Pseudomonas aeruginosa OC 12261 by broth macrodilution method
Pseudomonas aeruginosa [8] = assay: Antimicrobial activity against Pseudomonas aeruginosa OC 11678 expressing 31 fold elevated AmpC expression by broth macrodilution method
Pseudomonas aeruginosa [9] = assay: Antimicrobial activity against Pseudomonas aeruginosa OC 12070 expressing 37 fold elevated AmpC expression by broth macrodilution method
Pseudomonas aeruginosa [10] = assay: Antimicrobial activity against Pseudomonas aeruginosa OC 12070 expressing 151 fold elevated mexX expression and 127 fold elevated mexY expression by broth macrodilution method
Pseudomonas aeruginosa [11] = assay: Antimicrobial activity against Pseudomonas aeruginosa OC 11678 expressing 71 fold elevated mexX expression and 43 fold elevated mexY expression by broth macrodilution method
Pseudomonas aeruginosa [12] = assay: Antimicrobial activity against Pseudomonas aeruginosa OC 11678 expressing 29 fold elevated AmpC expression by broth macrodilution method
Pseudomonas aeruginosa [13] = assay: Antimicrobial activity against Pseudomonas aeruginosa OC 12070 expressing 11 fold elevated mexX expression and 10 fold elevated mexY expression by broth macrodilution method
Pseudomonas aeruginosa [14] = assay: Antimicrobial activity against Pseudomonas aeruginosa OC 12070 expressing 7 fold elevated AmpC expression by broth macrodilution method
Pseudomonas aeruginosa [15] = assay: microbe, parasite or virus in culture; settings: OC 11678
Description: Antimicrobial activity against Pseudomonas aeruginosa OC 11678 expressing 27 fold elevated mexX expression and 16 fold elevated mexY expression by broth macrodilution method

Pseudomonas aeruginosa [16] = assay: Antimicrobial activity against Pseudomonas aeruginosa OC 12070 expressing 12 fold elevated mexX expression and 25 fold elevated mexY expression by broth macrodilution method
Pseudomonas aeruginosa [17] = assay: Antimicrobial activity against Pseudomonas aeruginosa OC 12070 expressing 107 fold elevated mexX expression and 155 fold elevated mexY expression by broth macrodilution method
Pseudomonas aeruginosa [18] = assay: Antimicrobial activity against Pseudomonas aeruginosa OC 11678 expressing 32 fold elevated AmpC expression by broth macrodilution method
Pseudomonas aeruginosa [19] = assay: Antimicrobial activity against Pseudomonas aeruginosa OC 12070 expressing 36 fold elevated mexX expression and 39 fold elevated mexY expression by broth macrodilution method
Pseudomonas aeruginosa [20] = assay: Antimicrobial activity against Pseudomonas aeruginosa OC 12070 expressing 10 fold elevated mexX expression and 23 fold elevated mexY expression by broth macrodilution method
Pseudomonas aeruginosa [21] = assay: Antimicrobial activity against wild type Pseudomonas aeruginosa
Pseudomonas aeruginosa [22] = assay: Antimicrobial activity against Pseudomonas aeruginosa OC 11678 by broth macrodilution method
Pseudomonas aeruginosa [23] = assay: Antimicrobial activity against Pseudomonas aeruginosa OC 12070 expressing 8 fold elevated AmpC expression by broth macrodilution method
Pseudomonas aeruginosa [24] = assay: Antimicrobial activity against Pseudomonas aeruginosa OC 11678 expressing 33 fold elevated AmpC expression by broth macrodilution method
Pseudomonas aeruginosa [25] = assay: Antimicrobial activity against wild type Pseudomonas aeruginosa ATCC 27853 by broth macrodilution method
Pseudomonas aeruginosa [26] = assay: Antimicrobial activity against Pseudomonas aeruginosa OC 12070 expressing 27 fold elevated mexX expression and 49 fold elevated mexY expression by broth macrodilution method
Pseudomonas aeruginosa [27] = assay: Antimicrobial activity against Pseudomonas aeruginosa OC 11678 expressing 34 fold elevated AmpC expression by broth macrodilution method
Pseudomonas aeruginosa [28] = assay: Antimicrobial activity against Pseudomonas aeruginosa OC 11492 by broth macrodilution method
Pseudomonas aeruginosa [29] = assay: Antimicrobial activity against Pseudomonas aeruginosa OC 11678 expressing 40 fold elevated AmpC expression by broth macrodilution method
Pseudomonas aeruginosa [30] = assay: Antimicrobial activity against Pseudomonas aeruginosa OC 11053 by broth macrodilution method
Pseudomonas aeruginosa [31] = assay: Antimicrobial activity against Pseudomonas aeruginosa OC 12070 expressing 11 fold elevated AmpC expression by broth macrodilution method
Pseudomonas aeruginosa [32] = assay: Antimicrobial activity against Pseudomonas aeruginosa OC 12070 expressing 65 fold elevated mexX expression and 106 fold elevated mexY expression by broth macrodilution method
Pseudomonas aeruginosa [33] = assay: Antimicrobial activity against Pseudomonas aeruginosa OC 12070 by broth macrodilution method
Pseudomonas aeruginosa [34] = assay: Antimicrobial activity against Pseudomonas aeruginosa OC 11678 expressing 9 fold elevated AmpC expression by broth macrodilution method
Pseudomonas aeruginosa [35] = assay: Antimicrobial activity against wild type Pseudomonas aeruginosa PAO1 by broth macrodilution method

Row | SMILES | MIC (Pseudomonas aeruginosa [1]) | MIC (Pseudomonas aeruginosa [2]) | MIC (Pseudomonas aeruginosa [3]) | MIC (Pseudomonas aeruginosa [4]) | MIC (Pseudomonas aeruginosa [5]) | MIC (Pseudomonas aeruginosa [6]) | MIC (Pseudomonas aeruginosa [7]) | MIC (Pseudomonas aeruginosa [8]) | MIC (Pseudomonas aeruginosa [9]) | MIC (Pseudomonas aeruginosa [10]) | MIC (Pseudomonas aeruginosa [11]) | MIC (Pseudomonas aeruginosa [12]) | MIC (Pseudomonas aeruginosa [13]) | MIC (Pseudomonas aeruginosa [14]) | MIC (Pseudomonas aeruginosa [15]) | MIC (Pseudomonas aeruginosa [16]) | MIC (Pseudomonas aeruginosa [17]) | MIC (Pseudomonas aeruginosa [18]) | MIC (Pseudomonas aeruginosa [19]) | MIC (Pseudomonas aeruginosa [20]) | other results
1 | CO/N=C(\C(=O)N[C@@H]1C(=O)N2C(C(=O)[O-])=C(C[N+]3(C)CCCC3)CS[C@H]12)c1csc(N)n1 [CEFEPIME] | 32 µg/mL (≈ 66.6 µM) | 8 µg/mL (≈ 16.6 µM) | 32 µg/mL (≈ 66.6 µM) | 8 µg/mL (≈ 16.6 µM) | 2 µg/mL (≈ 4.16 µM) | 32 µg/mL (≈ 66.6 µM) | 4 µg/mL (≈ 8.32 µM) | 32 µg/mL (≈ 66.6 µM) | 16 µg/mL (≈ 33.3 µM) | 8 µg/mL (≈ 16.6 µM) | 32 µg/mL (≈ 66.6 µM) | 32 µg/mL (≈ 66.6 µM) | 8 µg/mL (≈ 16.6 µM) | 16 µg/mL (≈ 33.3 µM) | 8 µg/mL (≈ 16.6 µM) | 8 µg/mL (≈ 16.6 µM) | 16 µg/mL (≈ 33.3 µM) | 32 µg/mL (≈ 66.6 µM) | 8 µg/mL (≈ 16.6 µM) | 8 µg/mL (≈ 16.6 µM) | MIC50 (Pseudomonas aeruginosa [21]): 4 µg/mL (≈ 8.32 µM); MIC (Pseudomonas aeruginosa [22]): 8 µg/mL (≈ 16.6 µM); MIC (Pseudomonas aeruginosa [23]): 16 µg/mL (≈ 33.3 µM); MIC (Pseudomonas aeruginosa [24]): 32 µg/mL (≈ 66.6 µM); MIC (Pseudomonas aeruginosa [25]): 2 µg/mL (≈ 4.16 µM); MIC (Pseudomonas aeruginosa [26]): 8 µg/mL (≈ 16.6 µM); MIC (Pseudomonas aeruginosa [27]): 32 µg/mL (≈ 66.6 µM); MIC (Pseudomonas aeruginosa [28]): 4 µg/mL (≈ 8.32 µM); MIC (Pseudomonas aeruginosa [29]): 32 µg/mL (≈ 66.6 µM); MIC (Pseudomonas aeruginosa [30]): 4 µg/mL (≈ 8.32 µM); MIC (Pseudomonas aeruginosa [31]): 16 µg/mL (≈ 33.3 µM); MIC (Pseudomonas aeruginosa [32]): 16 µg/mL (≈ 33.3 µM); MIC (Pseudomonas aeruginosa [33]): 2 µg/mL (≈ 4.16 µM); MIC (Pseudomonas aeruginosa [34]): 32 µg/mL (≈ 66.6 µM); MIC (Pseudomonas aeruginosa [35]): 2 µg/mL (≈ 4.16 µM)
2 | CC(C)(O/N=C(\C(=O)N[C@@H]1C(=O)N2C(C(=O)[O-])=C(C[n+]3ccccc3)CS[C@H]12)c1csc(N)n1)C(=O)O [CEFTAZIDIME] | 64 µg/mL (≈ 117 µM) | 16 µg/mL (≈ 29.3 µM) | 128 µg/mL (≈ 234 µM) | 4 µg/mL (≈ 7.32 µM) | 1 µg/mL (≈ 1.83 µM) | 64 µg/mL (≈ 117 µM) | 4 µg/mL (≈ 7.32 µM) | 128 µg/mL (≈ 234 µM) | 32 µg/mL (≈ 58.5 µM) | 8 µg/mL (≈ 14.6 µM) | 32 µg/mL (≈ 58.5 µM) | 128 µg/mL (≈ 234 µM) | 2 µg/mL (≈ 3.66 µM) | 64 µg/mL (≈ 117 µM) | 4 µg/mL (≈ 7.32 µM) | 4 µg/mL (≈ 7.32 µM) | 16 µg/mL (≈ 29.3 µM) | 128 µg/mL (≈ 234 µM) | 4 µg/mL (≈ 7.32 µM) | 8 µg/mL (≈ 14.6 µM) | MIC50 (Pseudomonas aeruginosa [21]): 2 µg/mL (≈ 3.66 µM); MIC (Pseudomonas aeruginosa [22]): 4 µg/mL (≈ 7.32 µM); MIC (Pseudomonas aeruginosa [23]): 32 µg/mL (≈ 58.5 µM); MIC (Pseudomonas aeruginosa [24]): 128 µg/mL (≈ 234 µM); MIC (Pseudomonas aeruginosa [25]): 2 µg/mL (≈ 3.66 µM); MIC (Pseudomonas aeruginosa [26]): 4 µg/mL (≈ 7.32 µM); MIC (Pseudomonas aeruginosa [27]): 128 µg/mL (≈ 234 µM); MIC (Pseudomonas aeruginosa [28]): 2 µg/mL (≈ 3.66 µM); MIC (Pseudomonas aeruginosa [29]): 128 µg/mL (≈ 234 µM); MIC (Pseudomonas aeruginosa [30]): 1 µg/mL (≈ 1.83 µM); MIC (Pseudomonas aeruginosa [31]): 32 µg/mL (≈ 58.5 µM); MIC (Pseudomonas aeruginosa [32]): 16 µg/mL (≈ 29.3 µM); MIC (Pseudomonas aeruginosa [33]): 2 µg/mL (≈ 3.66 µM); MIC (Pseudomonas aeruginosa [34]): 64 µg/mL (≈ 117 µM); MIC (Pseudomonas aeruginosa [35]): 1 µg/mL (≈ 1.83 µM)
3 | Nc1nc(/C(=N/O)C(=O)N[C@@H]2C(=O)N3C(C(=O)O)=C(/C=C4\CCN([C@@H]5CCNC5)C4=O)CS[C@H]23)ns1 [CEFTOBIPROLE] | 4 µg/mL (≈ 7.48 µM) | 4 µg/mL (≈ 7.48 µM) | 4 µg/mL (≈ 7.48 µM) | 8 µg/mL (≈ 15 µM) | 2 µg/mL (≈ 3.74 µM) | 4 µg/mL (≈ 7.48 µM) | 4 µg/mL (≈ 7.48 µM) | 4 µg/mL (≈ 7.48 µM) | 2 µg/mL (≈ 3.74 µM) | 16 µg/mL (≈ 29.9 µM) | 32 µg/mL (≈ 59.9 µM) | 8 µg/mL (≈ 15 µM) | 8 µg/mL (≈ 15 µM) | 4 µg/mL (≈ 7.48 µM) | 8 µg/mL (≈ 15 µM) | 16 µg/mL (≈ 29.9 µM) | 16 µg/mL (≈ 29.9 µM) | 4 µg/mL (≈ 7.48 µM) | 16 µg/mL (≈ 29.9 µM) | 16 µg/mL (≈ 29.9 µM) | MIC50 (Pseudomonas aeruginosa [21]): 2 µg/mL (≈ 3.74 µM); MIC (Pseudomonas aeruginosa [22]): 4 µg/mL (≈ 7.48 µM); MIC (Pseudomonas aeruginosa [23]): 4 µg/mL (≈ 7.48 µM); MIC (Pseudomonas aeruginosa [24]): 4 µg/mL (≈ 7.48 µM); MIC (Pseudomonas aeruginosa [25]): 2 µg/mL (≈ 3.74 µM); MIC (Pseudomonas aeruginosa [26]): 16 µg/mL (≈ 29.9 µM); MIC (Pseudomonas aeruginosa [27]): 4 µg/mL (≈ 7.48 µM); MIC (Pseudomonas aeruginosa [28]): 8 µg/mL (≈ 15 µM); MIC (Pseudomonas aeruginosa [29]): 4 µg/mL (≈ 7.48 µM); MIC (Pseudomonas aeruginosa [30]): 4 µg/mL (≈ 7.48 µM); MIC (Pseudomonas aeruginosa [31]): 4 µg/mL (≈ 7.48 µM); MIC (Pseudomonas aeruginosa [32]): 16 µg/mL (≈ 29.9 µM); MIC (Pseudomonas aeruginosa [33]): 2 µg/mL (≈ 3.74 µM); MIC (Pseudomonas aeruginosa [34]): 4 µg/mL (≈ 7.48 µM); MIC (Pseudomonas aeruginosa [35]): 2 µg/mL (≈ 3.74 µM)
